Experimental data from paper PMC6152747, “Lipophilicity Studies on Thiosemicarbazide Derivatives” (Molecules : A Journal of Synthetic Chemistry and Natural …, 2017).

Tests used:
[1] = physchem; type: physicochemical; conditions: for −S: slope of logk vs. methanol concentration (Eq. 1); for chromatographic logP: read-out: logPHPLC; for – S of standards: slope of Eq. 1
Description: Methanolic solutions (5 μL, 0.1%) of selected samples were applied to the chromatographic column (RP-18 Waters Symmetry, 15 cm length, 4.6 mm i.d., 5 μm particle size) by use of an autosampler Hitachi L-2200 (LaChrom Elite, Hitachi-Merck, Darmstadt, Germany). The mobile phase, consisting of a methanol and water mixture, was degassed by use of the built-in membrane degasser. […] Chromatograms were detected at 254 nm and the temperature of the column was 25 °C. All experiments were repeated in triplicate and the final results were taken to be the arithmetic means. Dead time was measured by use of uracil (Calbiochem. Merck, Darmstadt, Germany). All experiments were performed at ambient temperature.

[2] = molecular target: S. aureus topoisomerase IV (topo IV); conditions: previously tested, cited from earlier work; for IC50: read-out: Inhibitory Potency IC50 Topo IV
[3] = molecular target: S. aureus DNA gyrase; conditions: previously tested, read-out: Inhibitory Potency IC50 DNA Gyrase; cited from earlier work
[4] = parameters: method as in earlier work; conditions: octanol–water; OECD guidelines; cited from earlier work
[5] = Table 1, retention factor extrapolated to pure water (Eq. 1), methanol 45–75%, RP-18, 25 °C
[6] = Table 2, retention factor extrapolated to pure water
[7] = from logkw by calibration curve with seven OECD standards (Eq. 3)
[8] = same chromatographic conditions as compounds 1–17

SMILES	logkw [1, 5]	−S ([1]; Table 1)	logkw [1, 6]	chromatographic logP [1, 7]	further results
O=C(NNC(=S)Nc1ccccc1)c1ccccc1O [Compound 12]	2.4813	4.1962	2.4813	2.49	
Cc1nnsc1C(=O)NNC(=S)Nc1ccc(Br)cc1 [Compound 28]					IC50 [2]: 403 µM
O=C(NNC(=S)Nc1ccc([N+](=O)[O-])cc1)c1ccc[nH]1 [Compound 27]					IC50 [3]: 64.2 µM
Cc1ccccc1 [toluene, reference compound]					– S of standards ([1]; Table S2): 3.4400
COc1cccc(C(=O)NNC(=S)NC(=O)c2ccccc2C)c1 [Compound 5]	3.4487	4.8562	3.4487	3.53	
O=C(NC(=S)NNC(=O)c1cccs1)c1ccccc1 [Compound 19]					IC50 [3]: 83.6 µM
c1ccccc1 [benzene, reference compound]					logkw of standards ([1]; Table S2, parameters of Eq. 1): 2.2458; – S of standards ([1]; Table S2): 2.8691
O=C(NNC(=S)Nc1ccccc1F)c1cc2ccccc2[nH]1 [Compound 22]					IC50 [2]: 63.5 µM; Inhibitory Potency IC50 Topo IV [2]: weak inhibitory potency
COc1cccc(C(=O)NNC(=S)NC(=O)c2ccccc2Cl)c1 [Compound 7]	3.8283	5.6579	3.8283	3.93	
Oc1ccc2ccccc2n1 [2-hydroxyquinoline, reference compound]					logkw of standards ([1]; Table S2, parameters of Eq. 1): 1.4879; – S of standards ([1]; Table S2): 2.9059; logkw of standards [1, 8]: 1.3682
O=C(CS(=O)(=O)c1ccccc1)NNC(=S)NC(=O)c1ccccc1Cl [Compound 10]	3.2498	5.7291	3.2498	3.31	
O=C(NNC(=S)Nc1ccc([N+](=O)[O-])cc1)c1cc2ccccc2[nH]1 [Compound 21]					IC50 [2]: 14 µM
O=C(NNC(=S)Nc1ccc(Cl)cc1)c1ccccc1O [Compound 11]	3.3324	4.8778	3.3324		logPHPLC [1, 7]: 3.4026
Cc1ccc(NC(=S)NNC(=O)c2ccccc2O)cc1Cl [Compound 15]	3.9451	5.5432	3.9451	4.06	
COc1cccc(C(=O)NNC(=S)NC(=O)c2cccc(Cl)c2)c1 [Compound 8]	3.7422	5.0742	3.7422	3.84	
Cc1occc1C(=O)NNC(=S)NC(=O)c1ccccc1 [Compound 1]	2.9992	4.3720	2.9992	3.05	IC50 [3]: 14.6 µM
O=C(NC(=S)NNC(=O)c1cc2ccccc2[nH]1)c1ccccc1 [Compound 18]					IC50 [2]: 14 µM; Inhibitory Potency IC50 Topo IV [2]: anti-topo IV activity

SMILES	logkw [1, 5]	−S ([1]; Table 1)	logkw [1, 6]	chromatographic logP [1, 7]	further results
COc1cccc(C(=O)NNC(=S)NC(=O)c2cccc(C)c2)c1 [Compound 6]	3.7864	5.1137	3.7864	3.89	
O=C(NNC(=S)Nc1ccc(F)cc1)c1cc2ccccc2[nH]1 [Compound 23]					IC50 [3]: 128 µM; IC50 [2]: 267 µM; Inhibitory Potency IC50 Topo IV [2]: weak inhibitory potency
Brc1ccccc1 [bromobenzene, reference compound]					logkw of standards ([1]; Table S2, parameters of Eq. 1): 3.0842; – S of standards ([1]; Table S2): 3.6630
O=C(NNC(=S)Nc1ccc(Cl)c(Cl)c1)c1ccccc1O [Compound 14]	4.1453	5.6538	4.1453	4.27	
O=C(NNC(=S)NC1CCCCC1)c1cccc(O)c1 [Compound 17]	2.7583	4.3297	2.7583	2.79	
O=C(NNC(=S)NC(=O)c1ccccc1Cl)c1ccccc1O [Compound 3]	4.2230	6.1166		4.36	
CCc1ccccc1 [ethylbenzene, reference compound]					logkw of standards ([1]; Table S2, parameters of Eq. 1): 3.4018; – S of standards ([1]; Table S2): 3.8740; logkw of standards [1, 8]: 3.3754
COc1cccc(C(=O)NNC(=S)NC(=O)c2ccccc2)c1 [Compound 4]	3.3130	4.8205	3.3130	3.38	
O=C(NNC(=S)Nc1ccccc1)c1cccc(O)c1 [Compound 16]	2.0687	4.1968	2.0687	2.05	
O=C(NC(=S)NNC(=O)c1ccc[nH]1)c1ccccc1 [Compound 2]	2.5105	4.1416	2.5105	2.53	IC50 [3]: 93.3 µM; IC50 [2]: 41 µM; Inhibitory Potency IC50 Topo IV [2]: anti-topo IV activity
O=C(NNC(=S)Nc1ccc(F)cc1F)c1cc2ccccc2[nH]1 [Compound 24]					IC50 [2]: 295 µM; Inhibitory Potency IC50 Topo IV [2]: weak inhibitory potency
O=C(NNC(=S)NC1CCCCC1)c1ccccc1O [Compound 13]	3.2386	4.7076	3.2386	3.3	
Cc1nc[nH]c1C(=O)NNC(=S)NC(=O)c1ccccc1 [Compound 20]					IC50 [2]: 90 µM; Inhibitory Potency IC50 Topo IV [2]: anti-topo IV activity
Nc1ccccc1 [aniline, reference compound]					logkw of standards ([1]; Table S2, parameters of Eq. 1): 1.1365; – S of standards ([1]; Table S2): 2.4091
c1ccc2ccccc2c1 [naphtalene, reference compound]					logkw of standards ([1]; Table S2, parameters of Eq. 1): 3.5779; – S of standards ([1]; Table S2): 4.2289; logkw of standards [1, 8]: 3.5502; known logPo/w of standards [4]: 3.6
COc1cccc(C(=O)NNC(=S)NC(=O)c2ccc(Cl)cc2)c1 [Compound 9]	3.9422	5.3417	3.9422	4.05	
